Source: ChEMBL document CHEMBL5344431 (J Med Chem, 2024)
Activity calls are given as the source filed them. The rule behind the calls is not given here.

The molecules below were run against T1, Histone deacetylase 8 (Homo sapiens) (UniProt Q9BY41) (assay: Inhibition of HDAC8 in human OCI-AML3 cells assessed as increase in SMC3 acetylation at 20 to 40 uM incubated for 72 hrs by Western blotting analysis). Settings: OCI-AML-3, dose 20-40 µM.
T1 sequence (whole entry): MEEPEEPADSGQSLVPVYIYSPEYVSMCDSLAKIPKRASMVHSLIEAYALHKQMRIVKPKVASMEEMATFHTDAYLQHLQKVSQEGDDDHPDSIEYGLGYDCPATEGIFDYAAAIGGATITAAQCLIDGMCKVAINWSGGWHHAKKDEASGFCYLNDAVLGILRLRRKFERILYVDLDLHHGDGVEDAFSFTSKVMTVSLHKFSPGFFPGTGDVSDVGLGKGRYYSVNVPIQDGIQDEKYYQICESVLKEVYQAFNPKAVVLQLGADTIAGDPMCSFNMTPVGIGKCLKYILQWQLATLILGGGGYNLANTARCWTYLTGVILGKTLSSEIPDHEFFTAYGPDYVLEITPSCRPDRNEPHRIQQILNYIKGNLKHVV
Assay type: cell-based

Row | inhibition | SMILES
1 | Active | C#Cc1ccc[n+](C)c1

These molecules were tested against T2, Histone deacetylase 8 (Homo sapiens, UniProt Q9BY41) (assay: Inhibition of HDAC8 (unknown origin) using Boc-Lys(TFA)-AMC as substrate preincubated for 1 hr followed by substrate addition and measured after 15 mins by fluorescence based method). Settings: not given.
T2 sequence (Q9BY41 whole entry): T1 sequence (whole entry)

Row | IC50 | SMILES
2 | > 50 µM | Brc1ncccn1
3 | > 50 µM | C=Cc1cnccn1
4 | > 50 µM | C[n+]1ccccc1Cl
5 | 5 µM | C=Cc1ccc[n+](C)c1
6 | 1.3 µM | C[n+]1ccccc1Br
7 | 2.24 µM | Ic1ncccn1
8 | > 50 µM | C#Cc1cccnc1
9 | > 50 µM | N#Cc1cn[nH]c1
10 | > 50 µM | Brc1cncnc1
11 | > 50 µM | Clc1ncccn1
12 | 1.2 µM | C[n+]1ccsc1Br
13 | > 50 µM | C#Cc1ccccn1
14 | 16 µM | Cn1cc(Cl)[n+](C)c1
15 | 4.3 µM | C[n+]1cncc(Cl)c1
16 | 6.5 µM | C[n+]1ccc(Cl)cc1
17 | > 50 µM | C=Cc1ccn[nH]1
18 | 1.2 µM | C[n+]1ccoc1I
19 | 27 µM | C[n+]1ccnc(I)c1
20 | 31 µM | Cn1cc(I)[n+](C)c1
21 | 9 µM | Cn1cc(I)c[n+]1C
22 | 0.42 µM | C=Cc1c[n+](C)ccn1
23 | 4.7 µM | C[n+]1cccc(I)c1

Row | IC50 | SMILES
24 | 10 µM | C#Cc1cn(C)[n+](C)c1
25 | > 50 µM | C[n+]1ccnc(C#N)c1
26 | > 50 µM | Clc1c[nH]cn1
27 | > 50 µM | Ic1cncnc1
28 | 4.61 µM | Ic1ccncc1
29 | 0.42 µM | C#Cc1c[n+](C)ccn1
30 | 0.44 µM | C[n+]1ccccc1I
31 | > 50 µM | Brc1cnccn1
32 | > 50 µM | Ic1c[nH]cn1
33 | > 50 µM | C=Cc1ccncc1
34 | > 50 µM | Clc1cnccn1
35 | 0.97 µM | Cn1cc[n+](C)c1Cl
36 | > 50 µM | C#Cc1cc[n+](C)n1C
37 | > 50 µM | C=Cc1ccccn1
38 | > 50 µM | N#Cc1c[nH]cn1
39 | > 50 µM | Clc1cncnc1
40 | > 50 µM | C#Cc1cn[nH]c1
41 | > 50 µM | Clc1ccncc1
42 | > 50 µM | Brc1cccnc1
43 | > 50 µM | N#Cc1ccncn1
44 | > 50 µM | Ic1ncco1
45 | > 50 µM | Ic1cn[nH]c1

Row | IC50 | SMILES
46 | > 50 µM | Brc1c[nH]cn1
47 | 0.74 µM | C#Cc1nccc[n+]1C
48 | 8 µM | C[n+]1cccc(Br)c1
49 | 14 µM | C[n+]1cccc(Cl)c1
50 | 3.1 µM | C[n+]1ccc(Br)cc1
51 | 19 µM | Cn1c(I)cc[n+]1C
52 | > 50 µM | Brc1cn[nH]c1
53 | 2.1 µM | C#Cc1cccc[n+]1C
54 | 5.3 µM | C[n+]1ccccc1C#N
55 | > 50 µM | C[n+]1ccsc1C#N
56 | 12.6 µM | C#Cc1ccncc1
57 | > 50 µM | C[n+]1cnccc1Cl
58 | > 50 µM | Clc1cccnc1
59 | 23 µM | Cn1c(Br)cc[n+]1C
60 | 5 µM | C=Cc1cnc[n+](C)c1
61 | 14 µM | Cn1cc(Cl)c[n+]1C
62 | 27 µM | Cn1cc(Br)c[n+]1C
63 | > 50 µM | C=Cc1cc[n+](C)n1C
64 | 8.2 µM | C#Cc1ccc[n+](C)c1
65 | 0.22 µM | C[n+]1cccnc1Br
66 | 3.4 µM | C=Cc1cc[n+](C)cc1
67 | 14 µM | C[n+]1ccc(C#N)cc1

Row | IC50 | SMILES
68 | > 50 µM | Brc1ncc[nH]1
69 | 21 µM | C#Cc1cnc[n+](C)c1
70 | 0.3 µM | C[n+]1cncc(Br)c1
71 | > 50 µM | Ic1ncc[nH]1
72 | > 50 µM | C=Cc1cncnc1
73 | > 50 µM | Clc1cn[nH]c1
74 | > 50 µM | Cn1cc(C#N)c[n+]1C
75 | 0.13 µM | C[n+]1csc(Br)c1
76 | > 50 µM | C=Cc1cccnc1
77 | 5.6 µM | Brc1cncs1
78 | > 50 µM | Clc1ncc[nH]1
79 | > 50 µM | N#Cc1ncc[nH]1
80 | 3.6 µM | C[n+]1cnccc1C#N
81 | > 50 µM | Ic1ccn[nH]1
82 | > 50 µM | Brc1ccncc1
83 | > 50 µM | C#Cc1cncnc1
84 | 24 µM | Cn1cc(C#N)[n+](C)c1
85 | 0.33 µM | Cn1cc[n+](C)c1Br
86 | > 50 µM | C[n+]1cncc(C#N)c1
87 | 0.12 µM | C[n+]1cncc(I)c1
88 | > 50 µM | Cc1noc(C)c1I
89 | > 50 µM | N#Cc1nccs1

Row | IC50 | SMILES
90 | 0.079 µM | C#Cc1cc[n+](C)cc1
91 | 27 µM | C[n+]1ccnc(Br)c1
92 | 20 µM | Cn1cc(Br)[n+](C)c1
93 | 0.44 µM | C[n+]1ccc(I)cc1
94 | > 50 µM | N#Cc1cncnc1
95 | 0.43 µM | C[n+]1cccnc1Cl
96 | 2.9 µM | Cc1o[n+](C)c(C)c1I
97 | > 50 µM | Brc1ccn[nH]1
98 | > 50 µM | Brc1ccccn1
99 | > 50 µM | Ic1cnccn1
100 | > 50 µM | Clc1ccncn1
101 | > 50 µM | Brc1nccs1
102 | 0.152 µM | C[n+]1cccnc1I
103 | 12 µM | C[n+]1cccc(C#N)c1
104 | 2.3 µM | C[n+]1ccnc(Cl)c1
105 | 1.8 µM | Cn1cc[n+](C)c1I
106 | > 50 µM | C#Cc1cnccn1
107 | > 50 µM | C#Cc1ncccn1
108 | > 50 µM | C#Cc1ccn[nH]1

Row | SMILES | IC50
109 | N#Cc1cnccn1 | > 50 µM
110 | Cn1cc[n+](C)c1C#N | 22 µM
111 | N#Cc1cccnc1 | > 50 µM
112 | N#Cc1ccccn1 | > 50 µM
113 | N#Cc1ccncc1 [ISONICOTINONITRILE] | > 50 µM
114 | Clc1ccccn1 [2-CHLOROPYRIDINE] | > 50 µM

What follows are molecules tested against T1, Histone deacetylase 8 (Homo sapiens) (assay: Inhibition of HDAC8 (unknown origin) at 0.0001 to 10000 uM using Boc-Lys(TFA)-AMC as substrate preincubated for 1 hr followed by substrate addition and measured after 15 mins by fluorescence based method). Settings: dose 0.0001-10000 µM, time 75.0 min.

Row | inhibition | SMILES
115 | inactive | C#Cc1c[n+](C)ccc1NC(=O)CCC(=O)N1Cc2ccccc2C1
116 | inactive | C#Cc1c[n+](C)ccc1NC(=O)N1Cc2ccccc2C1

These molecules were tested against T1, Histone deacetylase 8 (Homo sapiens) (assay: Inhibition of HDAC8 in human OCI-AML3 cells assessed as increase in SMC3 acetylation at 10 uM incubated for 72 hrs by Western blotting analysis). Settings: OCI-AML-3.
Assay type: cell-based

Row | inhibition | SMILES
117 | Active | C#Cc1c[n+](C)ccc1NC(=O)CC(=O)N1Cc2ccccc2C1

These molecules were tested against T1, Histone deacetylase 8 (Homo sapiens) (assay: Inhibition of HDAC8 (unknown origin) assessed as Kinact using Boc-Lys(TFA)-AMC as substrate by fluorescence based method). Settings: not given.

Row | K | SMILES
118 | 0.003 s⁻¹ | C#Cc1ccc[n+](C)c1
119 | 0.005 s⁻¹ | C#Cc1c[n+](C)ccc1NC(=O)CC(=O)N1Cc2ccccc2C1

What follows are molecules tested against T1, Histone deacetylase 8 (Homo sapiens) (assay: Inhibition of HDAC8 (unknown origin) upto 100 uM using Boc-Lys(TFA)-AMC as substrate preincubated for 1 hr followed by substrate addition and measured after 15 mins by fluorescence based method). Settings: time 75.0 min.

Row | inhibition | SMILES
120 | inactive | C#Cc1cnccc1NC(=O)N1Cc2ccccc2C1
121 | inactive | C#Cc1c[n+](C)ccc1NC(=O)CCC(=O)N1Cc2ccccc2C1
122 | inactive | C#Cc1cnccc1NC(=O)CCC(=O)N1Cc2ccccc2C1
123 | inactive | C#Cc1cnccc1NC(=O)CC(=O)N1Cc2ccccc2C1
